Measurements as given in patent US10752612B2, “PLK4 inhibitors” (LUDWIG INSTITUTE FOR CANCER RESEARCH LTD, priority 2015, dated 2020).

What was measured:
FLT4/VEGFR3 = FLT4/VEGFR3 (Homo sapiens, UniProt P35916); assay: Radiometric kinase assay, off-target FLT4/VEGFR3; assay type: biochemical; conditions: off-target from DiscoveRx kinome profiling
Description: (§1) Aurora B and other radiometric kinase assays were performed by Reaction Biology (Malvern, Pa.). Kinome profiling of centrinone and centrinone-B was performed by DiscoveRx (San Diego, Calif.).

HeLa cells [1] = assay: Analysis of mitosis, HeLa centrin-GFP H2B-RFP; assay type: cell-based, human; conditions: centrosome-less HeLa cells
Description: (§2) Analysis of mitosis and daughter cell fate. […] Cells were seeded into 96-well cycloolefin plates at 5000 cells/well, 8-10 hours before imaging. Movies were acquired on the CV1000 with a 40×0.95 NA U-PlanApo objective. The imaging chamber was maintained at 37° C. and 5% CO2. Image acquisition and data analysis were performed using CellVoyager software. 20 fields/well were imaged. For HeLa and NIH/3T3 cells, 5×2 μm z-sections in the GFP (25% power, 125 ms, 30% gain) and RFP (25% power, 100 ms, 30% gain) channels were captured in each field, at 5-minute intervals for 24 hours. For RPE1 cells, 5×2 μm z-sections in the GFP (20% power, 100 ms, 30% gain) and RFP (25% power, 100 ms, 30% gain) channels were captured in each field, at 5-minute intervals for 8 hours. To track RPE1 daughter cell fate, imaging was then switched to 3×4 μm z-sections in the RFP channel only, at 10-minute intervals for 48 hours. Mitosis was measured from nuclear envelope breakdown to anaphase onset (or arrest). Results represent combined measurements of 100 mother cells per condition from 2-4 independent experiments.

HeLa cells [2] = assay: Quantification of centrosome numbers from fixed samples, HeLa; assay type: cell-based, human; conditions: for foci of centriolar and pericentriolar material markers: centrinone treatment
Description: Quantification of centrosome numbers from fixed samples. Cells were seeded onto poly-D-lysine-coated coverslips (Neuvitro) in 12-well plates at least 8 hours before fixation. At the required timepoints for each experiment, cells were washed once with PBS and fixed in 100% methanol (−20° C., 5 minutes). Fixed cells were washed with PBS, blocked with PBS+4% BSA+0.1% Triton X-100, and stained with primary antibodies against γ-tubulin and Cep192, which localize to the pericentriolar material and proximal to the outer centriole wall, respectively (47, 48). Alexa488-labeled anti-mouse secondary antibody (against anti-γ-tubulin) and Alexa647-labeled anti-rabbit secondary antibody (against anti-Cep192) were both used at 1.5 jag/mL. Samples were mounted onto slides with Prolong Gold antifade reagent (Life Technologies). Images of fixed interphase cells were acquired on a Nikon Eclipse E800 with a 60×1.4 NA PlanApo objective and ORCA-ER camera (Hamamatsu) using Metamorph software (Molecular Devices). Quantification of foci was performed manually. A focus was defined as a bona-fide centrosome if it was positive for both γ-tubulin and Cep192 (true for >95% of foci).

RPE1 cells = assay: Analysis of mitosis and daughter cell fate, RPE1; assay type: cell-based, human
Description: as §2
To study the correlation between mother cell prometaphase duration and daughter cell fate, RPE1 cells co-expressing centrin-GFP and H2B-RFP were seeded into 96-well cycloolefin plates at 5000 cells/well, 8-10 hours before imaging. Cells were treated with 80 nM nocodazole and immediately imaged on the CV1000 system with a 40×0.95 NA U-PlanApo objective. The imaging chamber was maintained at 37° C. and 5% CO2. 20 fields/well were imaged. 5×2 Lm z-sections in the GFP (20% power, 100 ms, 30% gain) and RFP (25% power, 100 ms, 30% gain) channels were captured in each field, at 5-minute intervals for 6 hours. The plate was then removed from the microscope, and wells were washed 6 times with warm medium. The plate was returned to the microscope, and imaging was resumed, capturing 3×4 Lm z-sections in the RFP channel only, at 10-minute intervals for 50 hours. To study the effect of chromosome missegregation on daughter cell fate, cells were treated with 1 LM NMS-P715 to inhibit the spindle assembly checkpoint kinase Mps1, then imaged as described above. Only mitotic events with clear missegregation (lagging chromosomes and subsequent formation of daughter cells with micronuclei) were analyzed. For both experiments, results represent combined measurements of 100 mother cells from 2 independent experiments.

NIH/3T3 cells [3] = assay: Microtubule regrowth assay, NIH/3T3; assay type: cell-based, mouse; conditions: NIH/3T3, 5 minutes after washout
Description: Microtubule regrowth assay. […] Cells were seeded onto coverslips in 12-well plates and treated with 16 μM nocodazole for 4 hours to depolymerize microtubules. Wells were washed 6 times with PBS to remove the nocodazole, and fresh, pre-warmed medium was added to each well. After 5 minutes of recovery, cells were fixed with 100% methanol (−20° C., 5 minutes) and stained with antibodies against γ-tubulin and α-tubulin. Coverslips were mounted onto slides and imaged on a DeltaVision microscope (Applied Precision) with a 60×1.42 NA PlanApo objective and CoolSnap camera (Photometrics). Image deconvolution was performed in softWoRx (Applied Precision) and subsequent processing was performed in ImageJ (NIH).

RET = biological target: T1, RET (Homo sapiens, UniProt P07949); assay: Radiometric kinase assay, off-target RET; assay type: biochemical; conditions: off-target from DiscoveRx kinome profiling
T1 construct: Reaction Biology (Malvern, Pa.), contract assay
T1 sequence (P07949 29-1114): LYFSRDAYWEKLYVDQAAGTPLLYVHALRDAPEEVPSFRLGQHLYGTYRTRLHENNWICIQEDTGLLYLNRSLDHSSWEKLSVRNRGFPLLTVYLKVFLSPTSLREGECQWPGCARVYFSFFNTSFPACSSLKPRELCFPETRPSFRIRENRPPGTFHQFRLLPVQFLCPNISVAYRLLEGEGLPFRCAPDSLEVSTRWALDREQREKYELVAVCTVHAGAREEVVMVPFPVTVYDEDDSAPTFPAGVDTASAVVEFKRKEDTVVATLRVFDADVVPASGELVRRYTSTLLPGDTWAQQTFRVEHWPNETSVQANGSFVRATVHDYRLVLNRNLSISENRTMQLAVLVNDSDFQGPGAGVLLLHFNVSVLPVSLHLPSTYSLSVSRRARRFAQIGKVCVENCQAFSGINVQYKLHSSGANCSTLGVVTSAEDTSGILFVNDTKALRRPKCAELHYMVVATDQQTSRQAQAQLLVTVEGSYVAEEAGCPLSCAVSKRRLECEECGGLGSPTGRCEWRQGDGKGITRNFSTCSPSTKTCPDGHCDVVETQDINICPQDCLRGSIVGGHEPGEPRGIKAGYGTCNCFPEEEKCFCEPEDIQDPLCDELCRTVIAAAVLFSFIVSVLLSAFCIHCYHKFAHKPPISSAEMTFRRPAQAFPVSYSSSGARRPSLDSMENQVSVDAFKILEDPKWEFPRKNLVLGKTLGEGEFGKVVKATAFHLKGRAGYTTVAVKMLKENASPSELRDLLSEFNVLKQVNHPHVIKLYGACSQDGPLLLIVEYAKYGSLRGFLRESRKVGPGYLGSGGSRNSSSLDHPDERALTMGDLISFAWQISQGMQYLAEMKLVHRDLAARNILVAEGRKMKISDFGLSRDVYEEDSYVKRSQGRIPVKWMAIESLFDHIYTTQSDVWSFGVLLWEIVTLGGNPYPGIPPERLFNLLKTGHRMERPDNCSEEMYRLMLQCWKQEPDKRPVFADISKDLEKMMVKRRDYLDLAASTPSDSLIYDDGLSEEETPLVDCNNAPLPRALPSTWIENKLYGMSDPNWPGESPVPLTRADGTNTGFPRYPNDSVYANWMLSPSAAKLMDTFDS
Description: as §1

NIH/3T3 cells [4] = assay: Cilia formation assay in NIH/3T3 cells; assay type: cell-based, mouse; conditions: serum-starved NIH/3T3
Description: Cilia formation assay in NIH/3T3 cells. […] Cells were seeded onto coverslips and starved for 40 hours by replacing their media with DMEM+0.5% defined bovine serum. Cells were then washed with PBS, fixed with 100% methanol (−20° C., 5 minutes), stained with antibodies against γ-tubulin and IFT-88, and mounted onto slides. Image acquisition and deconvolution were performed on the DeltaVision system, as above. Subsequent image processing was performed in ImageJ.

Sequence of FLT4/VEGFR3 (P35916 25-1363): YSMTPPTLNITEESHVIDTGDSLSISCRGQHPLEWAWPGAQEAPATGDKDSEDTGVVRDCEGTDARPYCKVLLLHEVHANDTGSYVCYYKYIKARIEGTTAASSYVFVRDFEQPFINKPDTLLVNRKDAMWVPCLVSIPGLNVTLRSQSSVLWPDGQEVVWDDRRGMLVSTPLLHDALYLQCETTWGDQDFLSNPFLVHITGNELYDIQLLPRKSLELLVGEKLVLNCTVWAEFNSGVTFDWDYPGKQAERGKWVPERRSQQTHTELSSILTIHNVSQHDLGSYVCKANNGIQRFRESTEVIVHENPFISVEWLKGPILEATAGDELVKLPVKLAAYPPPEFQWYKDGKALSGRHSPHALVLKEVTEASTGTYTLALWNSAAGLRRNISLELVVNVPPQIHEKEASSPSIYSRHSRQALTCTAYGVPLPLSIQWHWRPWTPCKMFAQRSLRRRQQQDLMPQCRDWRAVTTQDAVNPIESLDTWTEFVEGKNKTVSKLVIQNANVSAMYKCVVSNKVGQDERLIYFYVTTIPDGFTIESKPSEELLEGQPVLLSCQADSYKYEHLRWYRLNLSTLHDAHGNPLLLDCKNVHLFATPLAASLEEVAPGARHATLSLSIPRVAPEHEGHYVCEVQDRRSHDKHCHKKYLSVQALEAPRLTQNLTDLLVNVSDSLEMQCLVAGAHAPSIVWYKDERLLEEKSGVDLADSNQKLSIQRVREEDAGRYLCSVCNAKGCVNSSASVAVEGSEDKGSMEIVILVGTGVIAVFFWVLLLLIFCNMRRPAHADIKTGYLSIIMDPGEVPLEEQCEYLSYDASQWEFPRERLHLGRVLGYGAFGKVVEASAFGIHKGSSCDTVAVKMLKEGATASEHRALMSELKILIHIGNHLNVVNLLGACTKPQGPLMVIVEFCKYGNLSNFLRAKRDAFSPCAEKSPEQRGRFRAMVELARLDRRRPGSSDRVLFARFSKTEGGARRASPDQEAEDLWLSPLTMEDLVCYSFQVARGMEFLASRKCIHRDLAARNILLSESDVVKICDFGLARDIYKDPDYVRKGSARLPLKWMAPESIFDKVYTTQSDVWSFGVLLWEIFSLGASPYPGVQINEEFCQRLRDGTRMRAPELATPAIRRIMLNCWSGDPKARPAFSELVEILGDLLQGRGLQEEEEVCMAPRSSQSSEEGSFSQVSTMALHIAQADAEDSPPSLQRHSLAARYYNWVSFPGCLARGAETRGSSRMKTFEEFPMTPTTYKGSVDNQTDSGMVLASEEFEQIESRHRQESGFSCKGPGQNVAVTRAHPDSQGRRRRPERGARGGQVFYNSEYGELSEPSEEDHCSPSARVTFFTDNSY

## COc1c(Nc2cc(C)[nH]n2)nc(Sc2ccc(S(=O)(=O)Cc3cccc([N+](=O)[O-])c3F)cc2F)nc1N1CCOCC1 [Centrinone, 2-((2-fluoro-4-((2-fluoro-3-nitrobenzyl)sulfonyl)phenyl)thio)-5-methoxy-N-(5-methyl-1H-pyrazol-3-yl)-6-morpholinopyrimidin-4-amine]
FLT4/VEGFR3
  Ki: 6.29 nM
HeLa cells [1]
  cells undergoing persistent mitotic arrest: 24%
  increase in mitotic duration: ~1 h
HeLa cells [2]; HeLa (also BT549, N1E-115-1)
  centrosome number directly after washout from long-term treated cells: initial wave of centrosome overduplication
HeLa cells [2]; HeLa, 10 days following washout
  centrosome numbers after washout: all cells exhibited normal centrosome numbers
HeLa cells [2]; HeLa
  foci of centriolar and pericentriolar material markers: loss of all markers from cells
HeLa cells [2]; HeLa, listed as centrinone
  foci of centriolar and pericentriolar material markers: most cells lacked centrioles/centrosomes
RPE1 cells; RPE1, FIG. 18A
  percentage of daughters not dividing within 48 hours: 1.5%
RPE1 cells; RPE1, acute treatment
  0-centrosome progeny of pioneer 1-centrosome mothers arrested: 33.0%
  1-centrosome progeny of pioneer 1-centrosome mothers arrested: 25.5%
  progeny of pioneer 0-centrosome mothers arrested: 70%
NIH/3T3 cells [3]
  microtubule organization after nocodazole washout: short microtubules form throughout the cytoplasm
RET
  Ki: 13.9 nM
NIH/3T3 cells [4]
  primary cilia: prevents assembly of primary cilia
